Assays:
Human CFTR mRNA = assay: CFTR mRNA silencing by CFTR DsiRNA-Transductin in well-differentiated HAE (RT-qPCR); type: cell-based; conditions: CFTR DsiRNA with simultaneous PAF treatment or spiperone pre-treatment
Protocol: (§1) FIG. 4. […] Alternatively, spiperone was applied apically and basolaterally to well-differentiated HAE for 6 hours, and then removed by rinsing before incubation for 4 hours with CFTR-targeting or NC1 DsiRNAs complexed with Transductin. In both cases, 24 hours after transfection, and RNA levels quantified by RT-qPCR. (b) A representative immunoblot from similarly treated wells, but cells were lysed and proteins visualized after immunoprecipitation with anti-CFTR antibody. Alpha-tubulin was used as a loading control. (c) Densitometry readings of immunoblots with results normalized to NC1 treated samples. In all cases, data are from 3 biological replicates and are mean±SD. ***p<0.001, **p<0.01 (Student's t-test).
For well-differentiated airway epithelia, transfection was performed mostly according to the manufacturer's protocol. […]
Total RNA was isolated using SV96 RNA isolation kit (Promega, Madison, Wis.), according to manufacturer's protocol. […] One-fifteenth of the cDNA was then amplified and analyzed by using the 5′-nuclease assay in a 7900 Real Time PCR System (Applied Biosystems, Foster city, CA) using primer-probe pairs reaction buffer and Immolase DNA polymerase (Bioline, Taunton, Mass.). […] Absolute quantification of an mRNA target sequence within an unknown sample was determined by reference to a standard curve. […]

RSV N and P protein = assay: RSV protein immunoblot in infected HAE; type: cell-based, Respiratory Syncytial Virus; conditions: PAF with RSV N DsiRNA; immunoblot 48 hours after infection
Description: FIG. 6. […] HAE was either treated or untreated with PAF in concurrence with RSV N DsiRNA. Six hours later the cells were infected with RSV at an MOI of 1. Forty eight hours later, the cell washings from the apical surface was collected and assayed for viral titer (a). The cells were lysed and the proteins visualized after immunoprecipitation with anti-RSV antibodies (b) and the bands quantified by densitometry (c). Data are mean±SD from the results three different experiments, each using a different donor. ***p<0.001 (Student's t-test).
RSV infection of HAE for both for immunoblot and viral titer was done at an MOI of 1. The virus was thawed at 37° C. and diluted in MEM (0% FCS) to a volume of 70 μl (1MOI)/well. The cells in Millicell filters were rinsed with the same media once and the virus applied to the apical surface. The plate was incubated at 37° C. for a period of 2 hours. After the incubation period, the virus inoculum was rinsed with MEM three times to remove any traces of the virus. The plates were then incubated at 37° C. until used for the assay.
HAE were rinsed with PBS and lysed in RIPA buffer (1% NP-40, 0.5% sodium deoxycholate, 0.1% SDS, 50 mM Tris, protease inhibitors [complete; mini, EDTA-free; Roche Biochemicals, Indianapolis, Ind.]) for 30 minutes at 4° C. […] The supernatant was quantified by BCA protein assay kit (Pierce, Rockford, Ill.). […]

CFTR protein = CFTR protein levels, immunoprecipitation and immunoblot with densitometry in HAE; type: cell-based, human
Protocol: as §1
HAE were rinsed with PBS and lysed in RIPA buffer (1% NP-40, 0.5% sodium deoxycholate, 0.1% SDS, 50 mM Tris, protease inhibitors [complete; mini, EDTA-free; Roche Biochemicals, Indianapolis, Ind.]) for 30 minutes at 4° C. The lysate were centrifuged in a table top centrifuge at 14,000 rpm for 20 minutes at 4° C. The supernatant was quantified by BCA protein assay kit (Pierce, Rockford, Ill.). Thirty micrograms of protein per lane was separated on a 10% Tris-HCL Criterion precast gel (Bio-Rad, Hercules, Calif.) for western blot analysis. The protein was transferred to Polyvinylidene difluoride membrane and then was probed with goat anti-RSV antibody purchased from Meridian Life Sciences (Memphis, Tenn.). The membrane was imaged, and then stripped with Restore Western Blot Stripping Buffer (Thermo Scientific, Lafayette, Colo.) for 15 minutes. The membrane was rinsed with Tris-buffered saline-Tween (TBS-T) and blocked in 5% bovine serum albumin (Research Products International Corp, Mt. Prospect, Ill.). The membrane was then reprobed with α-tubulin (Sigma-Aldrich).

Q: Which “silencing of CFTR mRNA levels” value (Human CFTR mRNA) does the source give for platelet activating factor [PAF] here?
A: The value was “approximately 30%”.

Q: What about the “RSV N and P protein abundance compared to untreated control cells” value (RSV N and P protein) of the same substance?
A: Its value is “reduced”.

Q: What about the “CFTR protein levels compared to controls” value (CFTR protein; PAF or spiperone and CFTR DsiRNA-Transductin, immunoprecipitation, western blot) of the same substance?
A: The value was “reduced CFTR protein levels”.

Q: And the “fully glycosylated CFTR band C” value (CFTR protein; densitometry, normalized to NC1 treated samples)?
A: The value was “significantly decreased”.

From patent US9987299B2, “Methods of improving RNAi in well-differentiated airway epithelia” (University of Iowa Research Foundation, priority 2014, dated 2018)
